How the values were obtained:
Test in all cases: Antitumor effects in PDX mouse model of TNBC
Assay type in all cases: in vivo
PDX TNBC Model CTG-1408 = details: PDX model CTG-1408; A 10 mg/kg SC BID 3 days on/4 off ×4; B 7.5 mg/kg PO BID×28; versus vehicle
Excerpt: (§1) Establish PDX tumor models from viable human tumor tissue and serially passage in immunocompromised female mice a limited number of times. Using tumor fragments harvested from donor host animals, perform unilateral subcutaneous implants from a specific passage of the PDX tumor model on the flanks of the experimental animals. When tumor volumes reach approximately 150-250 mm^3 in size, randomize the animals by treatment arm by randomization techniques well known in the art and place into their respective treatment groups using 1 animal per treatment group (3 animals in an untreated group). Formulate CHK1 inhibitor, 5-(5-(2-(3-aminopropoxy)-6-methoxyphenyl)-1H-pyrazol-3-ylamino)pyrazine-2-carbonitrile methanesulfonate hydrate, (Compound A) every 14 days in 20% captisol (dissolved in water) and administer subcutaneously twice daily at a dose of 10 mg/kg on days 1/2/3 of a weekly cycle for 4 weeks (SC, BID [3 days on/4 off]×4). Formulate the PI3K/mTOR dual inhibitor, 8-[5-(1-hydroxy-1-methylethyl)pyridin-3-yl]-1-[(2S)-2-methoxypropyl]-3-methyl-1,3-dihydro-2H-imidazo[4,5-c]quinolin-2-one, (Compound B) weekly in 1% (HEC)/0.25% Tween 80 (Polysorbate 80)/0.05% Dow-Corning Antifoam 1510-US and administer by oral gavage twice-daily for 28 days (PO, BID×28) at a dose of 7.5 mg/kg. Dose combination treatment animals with both compounds according to the schedule described above for monotherapy, and dose vehicle treatment animals with vehicle according to the schedule for Compound B.
(§2) Test the combination of Compound A and Compound B, as well as their respective monotherapies, in 40 PDX models (Table 1) of TNBC. Assess antitumor efficacy of the treatment groups by measuring tumor volume via caliper measurements twice a week during the course of the study. Measure body weight twice weekly during the course of the study as a general indicator of tolerability.
(§3) Capture tumor size and body weight twice per week. Estimate tumor volume (V) by using the formula: V=(π/6)×L×W^2 where L=larger of measured diameter and W=smaller perpendicular diameter. Calculate relative tumor volume using the tumor volume measurement taken nearest to the last day of dosing for each animal (T), divided by the baseline tumor volume for that animal (T0), which is the volume recorded on or just prior to the first day of dosing, Y=T/T0. Calculate % ΔT/ΔC values using the formula % ΔT/ΔC=100(YT−1)/(YC−1), whereby YT or YC=geometric mean relative volume of the compound treated group or the control group, respectively. Tumor growth inhibition is observed in those instances where the calculated values for % ΔT/ΔC are less than 100% whereby greater inhibition results in smaller % ΔT/ΔC values. If ΔT<0, then a tumor regression value is calculated instead of % ΔT/ΔC whereby % Regression=100(YT−1). Note that negative values indicate regression. We collectively refer to % ΔT/ΔC and % Regression as % Response.
(§4) Examine relative tumor volume (final volume divided by baseline volume) on the last day of treatment or the last day on which data from all three treatment groups and vehicle is available, if it is earlier than the last day of treatment and at least 14 days after baseline. Expected additive relative volume is determined using the Bliss method (Bliss, C. I., Ann Appl Biol, 1939; 26(3):585-615). Specifically, denoting Y=relative volume, YExp=(Y1*Y2)/YV, where YExp=expected additive relative volume, Y1 and Y2 are the relative volumes in the single agent groups (Compound A and Compound B), and YV is the relative volume in the vehicle group. A range of additivity is defined around the expected additive relative volume via upper and lower limits as follows:
(§5) Yupper=max(2*YExp,YExp+0.2)
(§6) Ylower=min(YExp/2,YExp−0.2)
(§7) The upper limit of the range is the larger of 2-fold above or 20% above the expected additive relative volume, and the lower limit is the smaller of 2-fold below or 20% below the expected additive relative volume. […]

PDX TNBC Model CTG-0437 = details: PDX model CTG-0437; A 10 mg/kg SC BID 3 days on/4 off ×4; B 7.5 mg/kg PO BID×28; versus vehicle
Excerpt: as §1, §2, §3, §4, §5, §6, §7

PDX TNBC Model ST430 = details: A 10 mg/kg SC BID 3 days on/4 off ×4, B 7.5 mg/kg PO BID×28, versus vehicle
Excerpt: as §1, §2, §3, §4, §5, §6, §7

PDX TNBC Model CTG-1019 = details: PDX model CTG-1019; A 10 mg/kg SC BID 3 days on/4 off ×4; B 7.5 mg/kg PO BID×28; versus vehicle
Excerpt: as §1, §2, §3, §4, §5, §6, §7

PDX TNBC Model CTG-0986 = details: PDX model CTG-0986; A 10 mg/kg SC BID 3 days on/4 off ×4; B 7.5 mg/kg PO BID×28; versus vehicle
Excerpt: as §1, §2, §3, §4, §5, §6, §7

PDX TNBC Model ST035 = details: A 10 mg/kg SC BID 3 days on/4 off ×4, B 7.5 mg/kg PO BID×28, versus vehicle
Excerpt: as §1, §2, §3, §4, §5, §6, §7

PDX TNBC Model MAXF MX1 = details: A 10 mg/kg SC BID 3 days on/4 off ×4, B 7.5 mg/kg PO BID×28, versus vehicle
Excerpt: as §1, §2, §3, §4, §5, §6, §7

PDX TNBC Model CTG-1151 = details: PDX model CTG-1151; A 10 mg/kg SC BID 3 days on/4 off ×4; B 7.5 mg/kg PO BID×28; versus vehicle
Excerpt: as §1, §2, §3, §4, §5, §6, §7

PDX TNBC Model CTG-0888 = details: PDX model CTG-0888; A 10 mg/kg SC BID 3 days on/4 off ×4; B 7.5 mg/kg PO BID×28; versus vehicle
Excerpt: as §1, §2, §3, §4, §5, §6, §7

PDX TNBC Model CTG-1153 = details: PDX model CTG-1153; A 10 mg/kg SC BID 3 days on/4 off ×4; B 7.5 mg/kg PO BID×28; versus vehicle
Excerpt: as §1, §2, §3, §4, §5, §6, §7

PDX TNBC Model CTG-0869 = details: PDX model CTG-0869; A 10 mg/kg SC BID 3 days on/4 off ×4; B 7.5 mg/kg PO BID×28; versus vehicle
Excerpt: as §1, §2, §3, §4, §5, §6, §7

PDX TNBC Model MAXF 508 = details: PDX model MAXF 508; A 10 mg/kg SC BID 3 days on/4 off ×4; B 7.5 mg/kg PO BID×28; versus vehicle
Excerpt: as §1, §2, §3, §4, §5, §6, §7

Compound | % Rsp. (% ΔT/ΔC or % Regression) (PDX TNBC Model CTG-1408) [%] | % Rsp. (% ΔT/ΔC or % Regression) (PDX TNBC Model CTG-0437) [%] | % Rsp. (% ΔT/ΔC or % Regression) (PDX TNBC Model ST430) [%] | % Rsp. (% ΔT/ΔC or % Regression) (PDX TNBC Model CTG-1019) [%] | % Rsp. (% ΔT/ΔC or % Regression) (PDX TNBC Model CTG-0986) [%] | % Rsp. (% ΔT/ΔC or % Regression) (PDX TNBC Model ST035) [%] | % Rsp. (% ΔT/ΔC or % Regression) (PDX TNBC Model MAXF MX1) [%] | % Rsp. (% ΔT/ΔC or % Regression) (PDX TNBC Model CTG-1151) [%] | % Rsp. (% ΔT/ΔC or % Regression) (PDX TNBC Model CTG-0888) [%] | % Rsp. (% ΔT/ΔC or % Regression) (PDX TNBC Model CTG-1153) [%] | % Rsp. (% ΔT/ΔC or % Regression) (PDX TNBC Model CTG-0869) [%] | % Rsp. (% ΔT/ΔC or % Regression) (PDX TNBC Model MAXF 508) [%]
COc1cccc(OCCCN)c1-c1cc(Nc2cnc(C#N)cn2)n[nH]1.CS(=O)(=O)O [Compound A, 5-(5-(2-(3-aminopropoxy)-6-methoxyphenyl)-1H-pyrazol-3-ylamino)pyrazine-2-carbonitrile methanesulfonate hydrate] | 11.1 | −87.5 | 80.9 | 86.6 | 32.2 | 2.1 | 126.1 | −84.6 | 15.0 | −23.6 | 52.6 | −100.0
CO[C@@H](C)Cn1c(=O)n(C)c2cnc3ccc(-c4cncc(C(C)(C)O)c4)cc3c21 [Compound B, 8-[5-(1-hydroxy-1-methylethyl)pyridin-3-yl]-1-[(2S)-2-methoxypropyl]-3-methyl-1,3-dihydro-2H-imidazo[4,5-c]quinolin-2-one] | 27.5 | 80.3 | 59.2 | 158.0 | 54.6 | 54.0 | 163.0 | 92.5 | 21.2 | 86.5 | 64.9 | 41.3

Reference: US20180228795A1, “COMBINATION THERAPY FOR CANCER” (Eli Lilly and Company, priority 2015, published 2018)
